Measured values published in the NIST ThermoML archive (doi:10.1021/acs.jced.6b00640).

Assay: xn = mol fraction of the nth substance listed
Conditions: 100 kPa, Liquid; for viscosity: Concentric cylinders viscometry; for mass density: Vibrating tube method

CCOC(=O)CCC(=O)OCC [diethyl butanedioate] + CCCC(=O)OCC
Conditions | mass density, 308.15 K [kg/m3] | mass density, 313.15 K [kg/m3] | mass density, 318.15 K [kg/m3] | mass density, 323.15 K [kg/m3] | viscosity, 308.15 K [mPa·s] | viscosity, 313.15 K [mPa·s] | viscosity, 318.15 K [mPa·s] | viscosity, 323.15 K [mPa·s]
x2 = 0.0999 | 1011.46 | 1006.27 | 1001.09 | 995.9 | 1.796 | 1.642 | 1.5 | 1.384
x2 = 0.2 | 998.15 | 992.95 | 987.76 | 982.56 | 1.593 | 1.465 | 1.341 | 1.245
x2 = 0.3003 | 984.12 | 978.91 | 973.7 | 968.49 | 1.405 | 1.297 | 1.193 | 1.113
x2 = 0.3999 | 969.46 | 964.25 | 959.02 | 953.79 | 1.239 | 1.149 | 1.061 | 0.9951
x2 = 0.5 | 953.96 | 948.72 | 943.48 | 938.24 | 1.096 | 1.019 | 0.9464 | 0.8916
x2 = 0.5997 | 937.75 | 932.5 | 927.25 | 921.98 | 0.9742 | 0.91 | 0.8492 | 0.7992
x2 = 0.7 | 920.58 | 915.31 | 910.04 | 904.75 | 0.8745 | 0.8216 | 0.7706 | 0.7302
x2 = 0.7999 | 902.47 | 897.18 | 891.89 | 886.58 | 0.7752 | 0.731 | 0.6883 | 0.6542
x2 = 0.8999 | 883.31 | 878 | 872.69 | 867.36 | 0.6811 | 0.6451 | 0.6086 | 0.5785
